Results from publication PMC6509125, “The selective disruption of presynaptic JNK2/STX1a interaction reduces NMDA receptor-dependent glutamate release” (Scientific Reports, 2019).

Assays:
Type in all cases: cell-based, mouse
[1] = tested on: presynaptic NMDA receptors; assay: mEPSC whole cell patch clamp recordings in entorhinal cortex slices; conditions: TTX 1 µM, PTX 100 µM, MK-801 10 µM in pipette; n = 8
STX1a (Ser14 p-STX1a) = assay: STX1a Ser14 phosphorylation, western blot of cortical synaptosomes; conditions: mean ± s.e.m.; for Ser14 p-STX1a levels vs. control = 1, stimulus alone: NMDA 100 µM + glycine 1 µM 10 min or KCl 8 mM 90 s (Fig. 1B), n = 6
p46-JNK = p46-JNK phosphorylation, western blot of cortical synaptosomes; conditions: NMDA 100 µM + glycine 1 µM 10 min or KCl 8 mM 90 s (Fig. 1A); n = 6
p54-JNK = p54-JNK phosphorylation, western blot of cortical synaptosomes; conditions: mean ± s.e.m.; for p54-JNK phosphorylation vs. control, stimulus alone: NMDA 100 µM + glycine 1 µM 10 min or KCl 8 mM 90 s (Fig. 1A), n = 6
SNARE complex = SNARE complex formation assay in cortical synaptosomes; conditions: NMDA 100 µM + glycine 1 µM 10 min alone; mean ± s.e.m., n = 4
[2] = tested on: NMDA-evoked exocytosis, cortical synaptosomes; assay: Synaptic vesicle release, FM1-43 destaining in cortical synaptosomes; conditions: NMDA 100 µM + glycine 1 µM, 0 µM JGRi1; mean ± s.e.m., n = 5

SMILES	mEPSC amplitude, vehicle vs. D-AP5 [1]	mEPSC inter-event interval (iei), vehicle vs. D-AP5 [1]	STX1a phosphorylation vs. control = 1, stimulus alone (STX1a (Ser14 p-STX1a); NMDA 100 µM + glycine 1 µM 10 min alone (Fig. 4B), n = 7)	Ser14 p-STX1a levels vs. control = 1, stimulus alone (STX1a (Ser14 p-STX1a))	p46-JNK phosphorylation, stimulus alone (p46-JNK)	p54-JNK phosphorylation vs. control = 1, stimulus alone (p54-JNK; NMDA 100 µM + glycine 1 µM 10 min alone (Fig. 4A), n = 7)	p54-JNK phosphorylation vs. control, stimulus alone (p54-JNK)	SNARE complex formation vs. control = 1, stimulus alone (SNARE complex)	NMDA-induced release of fluorescent dye FM1-43, stimulus alone [2]
NC(CCCP(=O)(O)O)C(=O)O [D-AP5]	unaffected	induced an increase of iei	–	–	–	–	–	–	–
CN[C@H](CC(=O)O)C(=O)O [NMDA, N-methyl-D-aspartate]	–	–	1.51 ± 0.13	1.38 ± 0.07	unchanged	1.54 ± 0.12	1.58 ± 0.12	1.85 ± 0.06	68% ± 10
[Cl-].[K+] [KCl]	–	–	–	1.22 ± 0.11	unchanged	–	not by KCl stimulus	–	–
